System: 653999-131-R-J2-PDC complex spheroids, growth inhibition
Experiment: Anticancer human tumor 653999-131-R-J2-PDC patient-derived lung adenocarcinoma cell line growth inhibition [RAS]
Settings: for viability, T/C: stronger effect = lower value
Summary of the method: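 Tumour cells grown as complex spheroids with HUVEC endothelial cells and mesenchymal stem cells, treated with RAS pathway inhibitor combinations. Each agent spans half-log steps from near clinical Cmax, or 10 microM where Cmax is unknown.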
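Further: spheroids exposed to the agents for seven days before the readout.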

## CC(Nc1ccc2c(c1)OCCn1cc(N3C(=O)OCC3C(F)F)nc1-2)C(N)=O (stereo unspecified) + CCn1c(-c2cccnc2C(C)OC)c2c3cc(ccc31)N1CCOC(CC(NC(=O)C(C(C)C)N(C)C(=O)C3(F)CCN(C(=O)C#CC(C)(C)N(C)C)CC3)C(=O)N3CCCC(N3)C(=O)OCC(C)(C)C2)C1
Curve of first compound, second compound 0.000949 µM
  IC50: 772 nM
Curve of first compound, second compound 0.003 µM
  IC50: 502 nM
Curve of first compound, second compound 0.00949 µM
  IC50: 544 nM
Curve of first compound, second compound 0.03 µM
  IC50: 473 nM
Curve of first compound, second compound 0.0949 µM
  IC50: 510 nM
Curve of first compound, second compound 0.3 µM
  IC50: 442 nM
Second compound 0.000949 µM, first compound 0.0316 µM
  viability, T/C: 85.2%
Second compound 0.000949 µM, first compound 0.1 µM
  viability, T/C: 79.2%
Second compound 0.000949 µM, first compound 0.316 µM
  viability, T/C: 66.4%
Second compound 0.000949 µM, first compound 1 µM
  viability, T/C: 44.6%
Second compound 0.000949 µM, first compound 3.16 µM
  viability, T/C: 29.4%
Second compound 0.000949 µM, first compound 10 µM
  viability, T/C: 20.1%
Second compound 0.003 µM, first compound 0.0316 µM
  viability, T/C: 88.3%
Second compound 0.003 µM, first compound 0.1 µM
  viability, T/C: 70.8%
Second compound 0.003 µM, first compound 0.316 µM
  viability, T/C: 59.3%
Second compound 0.003 µM, first compound 1 µM
  viability, T/C: 38%
Second compound 0.003 µM, first compound 3.16 µM
  viability, T/C: 30.1%
Second compound 0.003 µM, first compound 10 µM
  viability, T/C: 20.3%
Second compound 0.00949 µM, first compound 0.0316 µM
  viability, T/C: 99.2%
Second compound 0.00949 µM, first compound 0.1 µM
  viability, T/C: 71%
Second compound 0.00949 µM, first compound 0.316 µM
  viability, T/C: 60.3%
Second compound 0.00949 µM, first compound 1 µM
  viability, T/C: 43.7%
Second compound 0.00949 µM, first compound 3.16 µM
  viability, T/C: 26.8%
Second compound 0.00949 µM, first compound 10 µM
  viability, T/C: 21.9%
Second compound 0.03 µM, first compound 0.0316 µM
  viability, T/C: 83.3%
Second compound 0.03 µM, first compound 0.1 µM
  viability, T/C: 69.6%
Second compound 0.03 µM, first compound 0.316 µM
  viability, T/C: 56.8%
Second compound 0.03 µM, first compound 1 µM
  viability, T/C: 37%
Second compound 0.03 µM, first compound 3.16 µM
  viability, T/C: 33.2%
Second compound 0.03 µM, first compound 10 µM
  viability, T/C: 20.5%
Second compound 0.0949 µM, first compound 0.0316 µM
  viability, T/C: 85.8%
Second compound 0.0949 µM, first compound 0.1 µM
  viability, T/C: 73.7%
Second compound 0.0949 µM, first compound 0.316 µM
  viability, T/C: 57.2%
Second compound 0.0949 µM, first compound 1 µM
  viability, T/C: 40.1%
Second compound 0.0949 µM, first compound 3.16 µM
  viability, T/C: 29.3%
Second compound 0.0949 µM, first compound 10 µM
  viability, T/C: 23.9%
Second compound 0.3 µM, first compound 0.0316 µM
  viability, T/C: 92%
Second compound 0.3 µM, first compound 0.1 µM
  viability, T/C: 67.5%
Second compound 0.3 µM, first compound 0.316 µM
  viability, T/C: 53.5%
Second compound 0.3 µM, first compound 1 µM
  viability, T/C: 41.2%
Second compound 0.3 µM, first compound 3.16 µM
  viability, T/C: 29.4%
Second compound 0.3 µM, first compound 10 µM
  viability, T/C: 18.3%

## CCN1CCN(Cc2ccc(Nc3ncc(F)c(-c4cc(F)c5nc(C)n(C(C)C)c5c4)n3)nc2)CC1 + C=CC(=O)N1CCN(c2nc(OCC3CCCN3C)nc3c(F)c(-c4nc(N)cc(C)c4C(F)(F)F)c(Cl)cc23)C(C)C1
Curve of first compound, second compound 0.00316 µM
  IC50: > 1000 nM
Curve of first compound, second compound 0.01 µM
  IC50: > 1000 nM
Curve of first compound, second compound 0.0316 µM
  IC50: > 1000 nM
Curve of first compound, second compound 0.1 µM
  IC50: > 1000 nM
Curve of first compound, second compound 0.316 µM
  IC50: > 1000 nM
Curve of first compound, second compound 1 µM
  IC50: > 1000 nM
Second compound 0.00316 µM, first compound 0.00316 µM
  viability, T/C: 90.4%
Second compound 0.00316 µM, first compound 0.01 µM
  viability, T/C: 79.5%
Second compound 0.00316 µM, first compound 0.0316 µM
  viability, T/C: 68.9%
Second compound 0.00316 µM, first compound 0.1 µM
  viability, T/C: 61.7%
Second compound 0.00316 µM, first compound 0.316 µM
  viability, T/C: 80%
Second compound 0.00316 µM, first compound 1 µM
  viability, T/C: 75.4%
Second compound 0.01 µM, first compound 0.00316 µM
  viability, T/C: 93.4%
Second compound 0.01 µM, first compound 0.01 µM
  viability, T/C: 84.1%
Second compound 0.01 µM, first compound 0.0316 µM
  viability, T/C: 69.3%
Second compound 0.01 µM, first compound 0.1 µM
  viability, T/C: 66.9%
Second compound 0.01 µM, first compound 0.316 µM
  viability, T/C: 67.7%
Second compound 0.01 µM, first compound 1 µM
  viability, T/C: 69.7%
Second compound 0.0316 µM, first compound 0.00316 µM
  viability, T/C: 106%
Second compound 0.0316 µM, first compound 0.01 µM
  viability, T/C: 87.1%
Second compound 0.0316 µM, first compound 0.0316 µM
  viability, T/C: 75.8%
Second compound 0.0316 µM, first compound 0.1 µM
  viability, T/C: 65.3%
Second compound 0.0316 µM, first compound 0.316 µM
  viability, T/C: 68.1%
Second compound 0.0316 µM, first compound 1 µM
  viability, T/C: 81.7%
Second compound 0.1 µM, first compound 0.00316 µM
  viability, T/C: 111%
Second compound 0.1 µM, first compound 0.01 µM
  viability, T/C: 84%
Second compound 0.1 µM, first compound 0.0316 µM
  viability, T/C: 67.6%
Second compound 0.1 µM, first compound 0.1 µM
  viability, T/C: 73.7%
Second compound 0.1 µM, first compound 0.316 µM
  viability, T/C: 63%
Second compound 0.1 µM, first compound 1 µM
  viability, T/C: 67.1%
Second compound 0.316 µM, first compound 0.00316 µM
  viability, T/C: 84.8%
Second compound 0.316 µM, first compound 0.01 µM
  viability, T/C: 98.6%
Second compound 0.316 µM, first compound 0.0316 µM
  viability, T/C: 78.2%
Second compound 0.316 µM, first compound 0.1 µM
  viability, T/C: 69.4%
Second compound 0.316 µM, first compound 0.316 µM
  viability, T/C: 70.7%
Second compound 0.316 µM, first compound 1 µM
  viability, T/C: 70.5%
Second compound 1 µM, first compound 0.00316 µM
  viability, T/C: 94%
Second compound 1 µM, first compound 0.01 µM
  viability, T/C: 81.3%
Second compound 1 µM, first compound 0.0316 µM
  viability, T/C: 63.4%
Second compound 1 µM, first compound 0.1 µM
  viability, T/C: 69.7%
Second compound 1 µM, first compound 0.316 µM
  viability, T/C: 77.6%
Second compound 1 µM, first compound 1 µM
  viability, T/C: 102%

## C#Cc1c(F)ccc2cc(O)cc(-c3ncc4c(N5CC6CCC(C5)N6)nc(OCC56CCCN5CC(F)C6)nc4c3F)c12 (stereo unspecified)
Compound 0.0316 µM
  viability, T/C: 99% [middle of 8 runs]
Compound 0.1 µM
  viability, T/C: 89.6% [middle of 8 runs]
Compound 0.316 µM
  viability, T/C: 71.2% [middle of 8 runs]
Compound 1 µM
  viability, T/C: 58.1% [middle of 8 runs]
Compound 3.16 µM
  viability, T/C: 43.8% [middle of 8 runs]
Compound 10 µM
  viability, T/C: 31.8% [middle of 8 runs]
Compound alone, run of 09/09/2024
  IC50: 1.88 µM [middle of 8 runs]

Source: PubChem BioAssay AID2060886 (Molecular Pharmacology Branch, DTP, NCI, 2025)
